Measured values as given in patent CN113004196A, “N-(苯甲氧基)-2-氯烟酰胺类化合物及其制备方法和应用” (Zhejiang University of Technology ZJUT, priority 2021, dated 2021).

Key:
[1] = system: bentgrass (Agrostis) seeds [剪股颖(Agrostis)的种子]; assay: Herbicidal activity test, seed germination inhibition in 24-well plate, bentgrass; type: in vivo
[2] = system: lettuce seeds [生菜(Lettuce)种子]; assay: Herbicidal activity test, seed germination inhibition in 24-well plate, lettuce; type: in vivo; conditions: 1 mM

| Compound | inhibition of germination of Agrostis seeds ([1]; 33 μM) | inhibition of lettuce seeds [2] | also measured |
| --- | --- | --- | --- |
| O=C(NOCc1cnc(Cl)s1)c1cccnc1Cl [I-1] | 较好的抑制 | 一定抑制作用 |  |
| O=C(NOCc1ccccc1Cl)c1cccnc1Cl [I-14] |  |  | inhibition of germination of Agrostis seeds ([1]; 333 μM): 完全抑制 |
| O=C(NOCc1ccccc1Br)c1cccnc1Cl [I-10] | 较好的抑制 |  |  |
| CC(C)(C)c1ccc(CONC(=O)c2cccnc2Cl)cc1 [I-8] | 较好的抑制 |  | inhibition of germination of Agrostis seeds ([1]; 10 μM): 较好的抑制 |
| O=C(NOCc1ccc(Br)cc1)c1cccnc1Cl [I-5] |  | 一定抑制作用 |  |
| O=C(NOCc1ccc(Cl)cc1Cl)c1cccnc1Cl [I-2] |  | 一定抑制作用 |  |
